In ChEMBL document CHEMBL4390644, “Synthesis, structure-activity relationship studies and biological characterization of new [1,2,4]triazolo[1,5-a]pyrimidine-based LSD1/KDM1A inhibitors” (Eur J Med Chem, 2019):
Active and inactive are the calls of the source. No cut-off for these calls is given here.

Experiments:
[1] = biological target: T1, Lysine-specific histone demethylase 1A (Homo sapiens, UniProt O60341); experiment: Inhibition of recombinant LSD1 (unknown origin) expressed in Escherichia coli BL21(DE) using H3K4me2 substrate by amplex red and horseradish peroxidase based fluorescence assay
A549 [2] = experiment: Up regulation of claudin-1 levels in human A549 cells up to 16 uM after 96 hrs by Western blot analysis; format: functional, cell-based
MAO-A [3] = biological target: T2, MAO-A (Homo sapiens, UniProt P21397); experiment: Inhibition of N-terminal FLAG-tagged full length recombinant human MAO-A expressed in Sf9 cells at 10 uM using luciferin derived luminogenic substrate preincubated for 15 mins followed by substrate addition and measured after 60 mins by MAO-Glo assay relative to control; conditions: probe luciferin derived luminogenic substrate
T2 sequence (P21397 whole entry): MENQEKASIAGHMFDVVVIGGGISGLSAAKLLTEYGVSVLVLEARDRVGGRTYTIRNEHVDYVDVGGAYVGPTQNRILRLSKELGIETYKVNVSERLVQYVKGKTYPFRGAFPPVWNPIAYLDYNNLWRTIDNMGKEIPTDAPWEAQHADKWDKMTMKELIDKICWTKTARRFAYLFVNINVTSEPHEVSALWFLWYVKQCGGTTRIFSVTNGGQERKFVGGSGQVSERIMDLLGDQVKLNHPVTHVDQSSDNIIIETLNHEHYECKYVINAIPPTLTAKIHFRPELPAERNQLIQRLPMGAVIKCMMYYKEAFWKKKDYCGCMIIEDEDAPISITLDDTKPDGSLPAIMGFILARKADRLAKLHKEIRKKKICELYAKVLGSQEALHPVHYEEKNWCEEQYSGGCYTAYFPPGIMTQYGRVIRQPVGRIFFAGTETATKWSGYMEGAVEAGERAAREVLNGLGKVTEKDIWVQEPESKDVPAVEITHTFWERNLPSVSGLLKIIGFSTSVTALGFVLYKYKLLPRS

A549 [4] = experiment: Down regulation of snail levels in human A549 cells up to 16 uM after 96 hrs by Western blot analysis; format: functional, cell-based
MAO-B [5] = biological target: T3, MAO-B (Homo sapiens, UniProt P27338); experiment: Inhibition of N-terminal FLAG-tagged full length recombinant human MAO-B expressed in Sf9 cells at 10 uM using luciferin derived luminogenic substrate preincubated for 15 mins followed by substrate addition and measured after 60 mins by MAO-Glo assay relative to control; conditions: probe luciferin derived luminogenic substrate
T3 sequence (P27338 whole entry): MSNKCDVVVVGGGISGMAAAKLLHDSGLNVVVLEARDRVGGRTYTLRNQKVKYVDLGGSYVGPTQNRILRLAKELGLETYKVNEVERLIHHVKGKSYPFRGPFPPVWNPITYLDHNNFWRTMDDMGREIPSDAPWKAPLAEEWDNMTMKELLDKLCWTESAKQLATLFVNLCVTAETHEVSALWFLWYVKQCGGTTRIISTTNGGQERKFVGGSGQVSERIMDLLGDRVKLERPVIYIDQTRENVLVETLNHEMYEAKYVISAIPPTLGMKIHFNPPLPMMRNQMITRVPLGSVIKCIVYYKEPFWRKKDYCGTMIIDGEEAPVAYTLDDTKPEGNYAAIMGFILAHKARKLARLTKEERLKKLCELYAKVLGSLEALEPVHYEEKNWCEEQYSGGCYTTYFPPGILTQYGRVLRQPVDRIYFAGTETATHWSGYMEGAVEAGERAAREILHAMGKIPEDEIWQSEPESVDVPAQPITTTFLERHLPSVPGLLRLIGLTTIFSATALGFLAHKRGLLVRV

A549 [6] = experiment: Down regulation of slug levels in human A549 cells up to 16 uM after 96 hrs by Western blot analysis; format: functional, cell-based
Armoracia rusticana = conditions: 10 uM
Description: Inhibition of horseradish peroxidase at 10 uM incubated for 10 mins with presence of H2O2 by absorbance based method relative to control

A549 [7] = conditions: Homo sapiens, 16 uM
Description: Antimigratory activity in human A549 cells at 16 uM after 48 hrs by Hoechst 33258 staining based transwell assay

A549 [8] = experiment: Effect on LSD1 expression in human A549 cells up to 16 uM after 96 hrs by Western blot analysis; format: functional, cell-based
A549 [9] = experiment: Down regulation of N-cadherin levels in human A549 cells up to 16 uM after 96 hrs by Western blot analysis; format: functional, cell-based
A549 [10] = experiment: Antiproliferative activity against human A549 cells assessed as reduction in cell viability measured after 72 hrs by MTT based method; conditions: A549, 72 h
A549 [11] = experiment: Up regulation of E-cadherin levels in human A549 cells up to 16 uM after 96 hrs by Western blot analysis; format: functional, cell-based
MAO-B [12] = biological target: T3, MAO-B; experiment: Inhibition of N-terminal FLAG-tagged full length recombinant human MAO-B expressed in Sf9 cells at 1 uM using luciferin derived luminogenic substrate preincubated for 15 mins followed by substrate addition and measured after 60 mins by MAO-Glo assay relative to control; conditions: probe luciferin derived luminogenic substrate
MAO-A [13] = biological target: T2, MAO-A; experiment: Inhibition of N-terminal FLAG-tagged full length recombinant human MAO-A expressed in Sf9 cells at 1 uM using luciferin derived luminogenic substrate preincubated for 15 mins followed by substrate addition and measured after 60 mins by MAO-Glo assay relative to control; conditions: probe luciferin derived luminogenic substrate
[14] = Antioxidant activity assessed as hydrogen peroxide scavenging activity at 10 uM incubated for 30 mins by ferrous ion oxidation-xylenol orange based method; format: functional
[15] = biological target: T1, Lysine-specific histone demethylase 1A; conditions: 1.6 uM
Description: Irreversible inhibition of recombinant LSD1 (unknown origin) expressed in Escherichia coli BL21(DE) assessed as recovery of enzyme activity at 1.6 uM using H3K4me2 substrate incubated for 1 hr followed by 80 fold dilution by dilution assay

[16] = biological target: T1, Lysine-specific histone demethylase 1A; experiment: Binding affinity to LSD1 in human A549 cells assessed as increase in stability of cellular LSD1 protein at 10 to 20 uM pre-incubated for 1 hr followed by heating at 46 and 52 degC for 3 mins by Western blot-based CESTA; format: cell-based
[17] = biological target: T1, Lysine-specific histone demethylase 1A; experiment: Inhibition of LSD1 in human A549 cells assessed as accumulation of H3K9me2 at 8 to 16 uM after 96 hrs by Western blot analysis; format: cell-based
[18] = biological target: T1, Lysine-specific histone demethylase 1A; experiment: Inhibition of LSD1 in human A549 cells assessed as accumulation of H3K4me1 at 8 to 16 uM after 96 hrs by Western blot analysis; format: cell-based
A549 [19] = experiment: Antiproliferative activity against human A549 cells assessed as reduction in cell viability at <40 uM measured after 72 hrs by MTT based method; format: functional
[20] = biological target: T1, Lysine-specific histone demethylase 1A; experiment: Inhibition of LSD1 in human A549 cells assessed as accumulation of H3K4me2 at 8 to 16 uM after 96 hrs by Western blot analysis; format: cell-based
[21] = biological target: T1, Lysine-specific histone demethylase 1A; experiment: Inhibition of LSD1 in human A549 cells assessed as accumulation of H3K9me1 at 8 to 16 uM after 96 hrs by Western blot analysis; format: cell-based
[22] = biological target: T1, Lysine-specific histone demethylase 1A; experiment: Binding affinity to LSD1 in human A549 cells assessed as increase in stability of cellular LSD1 protein at 10 uM pre-incubated for 1 hr followed by heating at 52 degC for 3 mins by Western blot-based CESTA; format: cell-based
A549 [23] = experiment: Antiproliferative activity against human A549 cells assessed as reduction in cell viability at 1.25 to 100 uM measured after 72 hrs by MTT based method; format: functional
[24] = biological target: T1, Lysine-specific histone demethylase 1A; experiment: Binding affinity to LSD1 in human A549 cells assessed as increase in stability of cellular LSD1 protein at 10 uM pre-incubated for 1 hr followed by heating at 49 degC for 3 mins by Western blot-based CESTA; format: cell-based

In the case of `CCCCCc1c(C)nc2nc(SCc3ccc(Cl)cc3)nn2c1Nc1ccc(N2CCN(C)CC2)cc1`, the IC50 [1] is reported as over 50 µM.
`Cc1nc2nc(SCc3ccc(Cl)cc3)nn2c(Nc2ccc(N3CCN(C)CC3)cc2)c1C` showed an IC50 [1] of over 50 µM.
With `Cc1cc(N)n2nc(SCc3ccccc3)nc2n1` the IC50 [1] was over 50 µM.
With `Cc1cc(Nc2ccc(N3CCN(C)CC3)cc2)n2nc(SCCCc3ccccc3)nc2n1` the IC50 [1] was over 50 µM.
With `Cc1cc(Nc2ccccc2)n2nc(SCc3ccccc3)nc2n1` the IC50 [1] was over 50 µM.
Compound `CN1CCN(c2ccc(Nc3cc(-c4ccccc4)nc4ncnn34)cc2)CC1` has an IC50 [1] of over 50 µM.
With `Cc1cc(Nc2ccc(N3CCN(C)CC3)cc2)n2nc(SCc3nc4ccccc4[nH]3)nc2n1` the Activity (A549 [2]) was “Active”, the inhibition at 1 h, 10 µM (MAO-A [3]) was 40% and the Activity (A549 [4]) was “Active”. The inhibition at 1 h, 10 µM (MAO-B [5]) was 34%, the Activity (A549 [6]) was “Active” and the inhibition (Armoracia rusticana) was “inactive”. The inhibition (A549 [7]) was “Active”, the Activity (A549 [8]) was “inactive” and the Activity (A549 [9]) was “Active”. The IC50 (A549 [10]) was 23.8 µM, the Activity (A549 [11]) was “Active” and the inhibition at 1 h, 1 µM (MAO-B [12]) was 18%. The inhibition at 1 h, 1 µM (MAO-A [13]) was 13% and the Activity [14] was “inactive”.
`Cc1cc(Nc2ccc(N3CCN(C)CC3)cc2)n2nc(SCC3CC3)nc2n1` showed an IC50 [1] of over 50 µM.
For `O=C(O)c1ccc(CN2CCC(CN[C@@H]3C[C@H]3c3ccccc3)CC2)cc1`, the inhibition [15] was “inactive”.
In the case of `Cc1cc(Nc2ccccc2)n2nc(SCc3nc4ccccc4[nH]3)nc2n1`, the Activity (A549 [2]) is reported as “inactive”, the Activity [16] is reported as “inactive” and the Activity (A549 [4]) is reported as “inactive”. For the same compound, the IC50 [1] was over 50 µM, the Activity (A549 [6]) was “inactive” and the inhibition [17] was “inactive”. The Activity (A549 [8]) was “inactive”, the inhibition [18] was “inactive” and the Activity (A549 [19]) was “inactive”. For the same compound, the Activity (A549 [9]) was “inactive”, the Activity (A549 [11]) was “inactive” and the inhibition [20] was “inactive”. For the same compound, the Activity [14] was “inactive” and the inhibition [21] was “inactive”.
With `Cc1cc(Nc2ccc(N3CCN(C)CC3)cc2)n2nc(SCc3ccccc3[N+](=O)[O-])nc2n1` the IC50 [1] was over 50 µM.
Compound `CN1CCN(c2ccc(Nc3c4c(nc5ncnn35)CCC4)cc2)CC1` has an IC50 [1] of over 50 µM.
With `c1ccc([C@@H]2C[C@H]2NC2CCNCC2)cc1` the Activity [22] was “Active”, the Activity (A549 [23]) was “inactive” and the Activity (A549 [2]) was “Active”. The Activity (A549 [4]) was “Active”, the Activity (A549 [6]) was “Active” and the Activity (A549 [8]) was “inactive”. For the same compound, the Activity (A549 [9]) was “Active”, the Activity (A549 [11]) was “Active” and the Activity [24] was “Active”.
